Measurements taken from ChEMBL document CHEMBL4813911 (J Med Chem, 2020).

Legend:
MV4-11 [1] = assay: Antiproliferative activity against human MV4-11 cells incubated for 48 hrs by CellTiter-Fluor cell viability assay; format: functional, cell-based; details: MV4-11, 48 h
MAO-A = target: T1, MAO-A (Homo sapiens, UniProt P21397); assay: Inhibition of human recombinant MAO-A expressed in Pichia pastoris using kynuramine as substrate at 100 uM by horseradish peroxidase coupled-assay relative to control; details: probe kynuramine
T1 sequence (P21397 whole entry): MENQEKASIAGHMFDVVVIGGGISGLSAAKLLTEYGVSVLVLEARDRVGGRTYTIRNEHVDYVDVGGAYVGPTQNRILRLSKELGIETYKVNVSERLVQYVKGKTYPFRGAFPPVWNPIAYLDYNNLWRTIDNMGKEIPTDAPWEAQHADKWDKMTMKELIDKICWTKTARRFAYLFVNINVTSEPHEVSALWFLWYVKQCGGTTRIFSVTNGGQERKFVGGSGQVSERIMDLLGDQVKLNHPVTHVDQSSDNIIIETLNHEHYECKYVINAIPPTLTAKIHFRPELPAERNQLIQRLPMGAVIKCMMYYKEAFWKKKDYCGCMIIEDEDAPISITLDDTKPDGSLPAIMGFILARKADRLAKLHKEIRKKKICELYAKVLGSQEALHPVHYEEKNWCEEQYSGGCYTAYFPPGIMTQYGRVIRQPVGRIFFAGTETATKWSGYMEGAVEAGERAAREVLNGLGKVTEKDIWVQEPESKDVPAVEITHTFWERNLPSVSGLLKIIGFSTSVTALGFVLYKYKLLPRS

MAO-B = target: T2, MAO-B (Homo sapiens, UniProt P27338); assay: Inhibition of human recombinant MAO-B expressed in Pichia pastoris using benzylamine as substrate at 100 uM by horseradish peroxidase coupled-assay relative to control; details: probe benzylamine
T2 sequence (P27338 whole entry): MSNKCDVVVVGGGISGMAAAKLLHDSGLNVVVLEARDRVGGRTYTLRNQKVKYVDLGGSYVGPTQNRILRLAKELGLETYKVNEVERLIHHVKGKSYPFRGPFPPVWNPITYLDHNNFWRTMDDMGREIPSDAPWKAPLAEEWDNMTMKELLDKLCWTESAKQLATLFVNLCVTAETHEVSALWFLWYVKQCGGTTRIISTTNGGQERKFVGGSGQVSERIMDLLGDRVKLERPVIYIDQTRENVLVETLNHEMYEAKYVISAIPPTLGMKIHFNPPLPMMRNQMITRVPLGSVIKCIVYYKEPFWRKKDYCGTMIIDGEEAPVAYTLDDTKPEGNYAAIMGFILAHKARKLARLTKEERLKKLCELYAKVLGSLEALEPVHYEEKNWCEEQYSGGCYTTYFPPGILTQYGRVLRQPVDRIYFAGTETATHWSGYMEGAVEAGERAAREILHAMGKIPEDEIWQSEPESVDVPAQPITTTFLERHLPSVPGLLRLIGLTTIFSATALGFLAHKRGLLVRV

NB-4 = assay: Antiproliferative activity against human NB4 cells incubated for 48 hrs by CellTiter-Fluor cell viability assay; format: functional, cell-based; details: NB-4, 48 h
HeLa = assay: Antiproliferative activity against human HeLa cells after 48 hrs by MTT assay; format: functional
KYSE-150 cell line = assay: Antiproliferative activity against human KYSE150 cells after 48 hrs by MTT assay; format: functional
PC-3 = assay: Antiproliferative activity against human PC-3 cells after 48 hrs by MTT assay; format: functional
[2] = target: T3, Amine oxidase [flavin-containing] A (Homo sapiens, UniProt P21397); assay: biochemical
T3 sequence (P21397 whole entry): T1 sequence (P21397 whole entry)

[3] = target: T4, Amine oxidase [flavin-containing] B (Homo sapiens, UniProt P27338); assay: biochemical
T4 sequence (P27338 whole entry): T2 sequence (P27338 whole entry)

HCT-116 = assay: Antiproliferative activity against human HCT116 cells after 48 hrs by MTT assay; format: functional
SH-SY5Y = assay: Antiproliferative activity against human SH-SY5Y cells after 48 hrs by MTT assay; format: functional
[4] = target: T4, Amine oxidase [flavin-containing] B; assay: Inhibition of MAO-B (unknown origin) measured after 60 mins by luciferin-based luminescence assay
[5] = target: T5, Lysine-specific histone demethylase 1A (Homo sapiens, UniProt O60341)
[6] = target: T5, Lysine-specific histone demethylase 1A; remark: listed apart in the source
[7] = target: T3, Amine oxidase [flavin-containing] A
[8] = target: T5, Lysine-specific histone demethylase 1A; remark: listed apart in the source
[9] = target: T4, Amine oxidase [flavin-containing] B; assay: Inhibition of human MAO-B expressed in baculovirus infected BTI insect cells by fluorescence method
[10] = target: T3, Amine oxidase [flavin-containing] A; assay: Inhibition of human MAO-A expressed in baculovirus infected BTI insect cells by fluorescence method
MV4-11 [11] = assay: Antiproliferative activity against human MV4-11 cells incubated for 6 days by MTS assay; format: functional, cell-based; details: MV4-11, 144 h
[12] = target: T4, Amine oxidase [flavin-containing] B; assay: Inhibition of MAO-B (unknown origin) using benzylamine as substrate preincubated for 20 mins followed by substrate addition and measured after 60 mins
[13] = target: T3, Amine oxidase [flavin-containing] A; assay: Inhibition of MAO-A (unknown origin) preincubated for 20 mins using 5-hydroxytryptamine as substrate followed by substrate addition and measured after 60 mins
[14] = target: T5, Lysine-specific histone demethylase 1A; assay: Inhibition of human LSD1 expressed in Escherichia coli BL21 (DE3) cells using (ARTK(diMe)QTARKSTGGKAPRKQLA peptide as substrate incubated for 30 mins by HRP reagent based fluorescence method
[15] = target: T6, Lysine-specific histone demethylase 2 (Homo sapiens, UniProt Q8NB78); assay: Inhibition of LSD2 (unknown origin) using Lys4-dimethylated H3 (1-20) peptide as substrate incubated for 30 mins by peroxidase-coupled assay
T6 sequence (Q8NB78 whole entry): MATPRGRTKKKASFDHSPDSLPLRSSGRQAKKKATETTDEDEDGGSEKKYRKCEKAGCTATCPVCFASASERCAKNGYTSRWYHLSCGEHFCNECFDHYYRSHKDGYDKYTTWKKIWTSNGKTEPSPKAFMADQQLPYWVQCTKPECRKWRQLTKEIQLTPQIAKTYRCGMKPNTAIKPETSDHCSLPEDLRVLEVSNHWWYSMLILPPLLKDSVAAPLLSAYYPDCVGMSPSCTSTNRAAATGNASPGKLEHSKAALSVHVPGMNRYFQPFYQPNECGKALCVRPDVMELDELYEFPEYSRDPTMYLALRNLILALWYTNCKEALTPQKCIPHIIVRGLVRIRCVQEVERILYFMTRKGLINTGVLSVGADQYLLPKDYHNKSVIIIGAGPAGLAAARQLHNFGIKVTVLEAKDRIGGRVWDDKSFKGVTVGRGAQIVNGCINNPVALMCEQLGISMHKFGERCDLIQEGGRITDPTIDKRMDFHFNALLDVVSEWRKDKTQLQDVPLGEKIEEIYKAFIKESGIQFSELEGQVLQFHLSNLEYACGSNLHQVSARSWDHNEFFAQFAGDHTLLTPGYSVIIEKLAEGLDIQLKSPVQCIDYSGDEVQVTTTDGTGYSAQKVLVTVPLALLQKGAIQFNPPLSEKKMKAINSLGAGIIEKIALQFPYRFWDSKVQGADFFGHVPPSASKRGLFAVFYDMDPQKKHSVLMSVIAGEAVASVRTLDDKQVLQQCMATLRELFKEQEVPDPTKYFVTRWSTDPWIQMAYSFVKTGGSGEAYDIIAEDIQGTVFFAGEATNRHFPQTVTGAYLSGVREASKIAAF

[16] = target: T3, Amine oxidase [flavin-containing] A; assay: Inhibition of human MAO-A expressed in baculovirus infected BTI insect cells using tyramine as substrate incubated for 30 mins by peroxidase-coupled assay
[17] = target: T4, Amine oxidase [flavin-containing] B; assay: biochemical; remark: listed apart in the source
[18] = target: T3, Amine oxidase [flavin-containing] A; assay: Inhibition of human MAO-A expressed in baculovirus infected BTI insect cells preincubated for 10 mins followed by substrate addition and measured after 60 mins by luciferin-based luminescence assay
[19] = target: T4, Amine oxidase [flavin-containing] B; assay: Inhibition of human MAO-B expressed in baculovirus infected BTI insect cells preincubated for 10 mins followed by substrate addition and measured after 60 mins by luciferin-based luminescence assay
OCI-AML-3 = assay: Antiproliferative activity against human OCI-AML3 cells incubated for 72 hrs by CellTiter-glo assay; format: functional, cell-based; details: OCI-AML-3, 72 h
[20] = target: T5, Lysine-specific histone demethylase 1A; assay: Inhibition of His-tagged full length human LSD1 expressed in Escherichia coli BL21 RIPL Codon Plus (DE3) using ARTK(me2)QTARKSTGGKAPRKQLA as substrate preincubated for 10 mins followed by substrate addition by amplex ultra red and HRP reagent based fluorescence method
HL-60 = assay: Antiproliferative activity against human HL-60 cells incubated for 72 hrs by CellTiter-glo assay; format: functional, cell-based; details: HL-60, 72 h
MV4-11 [21] = assay: Antiproliferative activity against human MV4-11 cells incubated for 72 hrs by CellTiter-glo assay; format: functional, cell-based; details: MV4-11, 72 h
Kasumi 1 = assay: Antiproliferative activity against human KASUMI-1 cells incubated for 72 hrs by CellTiter-glo assay; format: functional, cell-based; details: Kasumi 1, 72 h
THP-1 = assay: Antiproliferative activity against human THP-1 cells incubated for 72 hrs by CellTiter-glo assay; format: functional, cell-based; details: THP-1, 72 h
U-937 = assay: Antiproliferative activity against human U-937 cells incubated for 72 hrs by CellTiter-glo assay; format: functional, cell-based; details: U-937, 72 h
[22] = target: T5, Lysine-specific histone demethylase 1A; assay: Inhibition of human LSD1 (172 to 833 residues) using Lys4-dimethylated H3 (1-20) peptide as substrate incubated for 30 mins by peroxidase-coupled assay

Work on `NC1CC1c1ccc(NC(=O)c2ccc(NC(=O)OCc3ccccc3)cc2)cc1` (centres undefined) yielded an IC50 (MV4-11 [1]) of 0.4 µM, an inhibition at 100 µM (MAO-A) of 37% and an inhibition at 100 µM (MAO-B) of 8%. It also gave an IC50 (NB-4) of 0.6 µM.
`NC1CC1c1ccc(OCC[C@H](NC(=O)c2ccccc2)C(=O)NCc2ccccc2)cc1` (some centres undefined) gave a GI50 (HeLa) of 6 µM, a GI50 (KYSE-150 cell line) of 6 µM and a GI50 (PC-3) of 6 µM. It also gave an IC50 [2] of 290 µM, an IC50 [3] greater than 1000 µM and a GI50 (HCT-116) of 6 µM. The GI50 (SH-SY5Y) was 6 µM.
In the case of `CN1CCN(C(=O)CN[C@@H]2C[C@H]2c2ccc(F)nc2)CC1`, the IC50 [4] is reported as 10.8 µM, the IC50 [5] is reported as 0.003 µM and the IC50 [6] is reported as 0.031 µM. It also gave an IC50 [7] of 12.9 µM and an IC50 [8] of 0.007 µM.
In the case of `Fc1ccccc1CNC1CC12CCc1ccccc12` (centres undefined), the IC50 [9] is reported as 32 µM and the IC50 [10] is reported as 2.5 µM.
With `COc1ccc(CNC2CC23CCc2ccccc23)c(Cl)c1OC` (centres undefined) the IC50 [9] was 7 µM and the IC50 [10] was 5 µM.
`CCN(CC)S(=O)(=O)c1ccc([C@H]2C[C@@H]2NC(=O)OC(C)(C)C)cc1` showed an IC50 (MV4-11 [11]) of 4.9 µM, an IC50 [12] of 0.655 µM and an IC50 [13] of 0.708 µM. For the same molecule, the IC50 [14] was greater than 1 µM.
Work on `COc1ccccc1CNC1CC12CCc1ccccc12` (centres undefined) yielded an IC50 [9] of 12 µM and an IC50 [10] of 5.9 µM.
`CN1CCN(C(=O)CNC2CC2c2cc(F)cc(F)c2OCc2ccccc2)CC1` (centres undefined) was tested, and the Ki [15] was greater than 250 µM, the Ki [16] was greater than 250 µM and the Ki [17] was greater than 250 µM.
Molecule `COc1ccc(Br)cc1CNC1CC12CCc1ccccc12` (centres undefined) has an IC50 [9] of 1.2 µM and an IC50 [10] of 3.7 µM.
`Cn1cc(C(=O)Nc2ccc([C@@H]3C[C@H]3NCC3CC3)cc2)cn1` showed an IC50 [18] greater than 100 µM and an IC50 [19] greater than 100 µM.
`N[C@@H]1C[C@H]1c1ccc(C(=O)NCc2ccccc2)cc1` was tested, and the IC50 (OCI-AML-3) was 1.8 µM, the IC50 [20] was 0.3 µM and the IC50 (HL-60) was 1.7 µM. It also gave an IC50 (MV4-11 [21]) of 0.18 µM, an IC50 (Kasumi 1) of 0.03 µM and an IC50 (THP-1) of 0.1 µM. For the same molecule, the IC50 (U-937) was 1.6 µM.
With `N[C@H]1CCN(C(=O)CNC2CC2c2cc(F)cc(F)c2OCc2ccccc2)C1` (some centres undefined) the Ki [15] was greater than 250 µM, the Ki [22] was 0.56 µM and the Ki [16] was greater than 250 µM. The Ki [17] was greater than 250 µM.
